The values that follow come from ChEMBL document CHEMBL4811220, “Investigation of the in vitro and in vivo efficacy of peptoid-based HDAC inhibitors with dual-stage antiplasmodial activity” (Eur J Med Chem, 2021).

Structures are written as SMILES. Activity calls are given as the source filed them. The calls are words filed in the database; no cut-off is given here.

The nature of data set [1]: Selectivity index, ratio of IC50 for cytotoxicity against human HepG2-A16-CD81EGFP cells to IC50 for antiplasmodial activity against drug-sensitive asexual intraerythrocytic stage of Plasmodium falciparum 3D7 infected in human O+ erythrocytes.
Data set [2] addresses T1, Protein deacetylase HDAC6 (Homo sapiens, UniProt Q9UBN7).
T1 sequence (Q9UBN7 whole entry): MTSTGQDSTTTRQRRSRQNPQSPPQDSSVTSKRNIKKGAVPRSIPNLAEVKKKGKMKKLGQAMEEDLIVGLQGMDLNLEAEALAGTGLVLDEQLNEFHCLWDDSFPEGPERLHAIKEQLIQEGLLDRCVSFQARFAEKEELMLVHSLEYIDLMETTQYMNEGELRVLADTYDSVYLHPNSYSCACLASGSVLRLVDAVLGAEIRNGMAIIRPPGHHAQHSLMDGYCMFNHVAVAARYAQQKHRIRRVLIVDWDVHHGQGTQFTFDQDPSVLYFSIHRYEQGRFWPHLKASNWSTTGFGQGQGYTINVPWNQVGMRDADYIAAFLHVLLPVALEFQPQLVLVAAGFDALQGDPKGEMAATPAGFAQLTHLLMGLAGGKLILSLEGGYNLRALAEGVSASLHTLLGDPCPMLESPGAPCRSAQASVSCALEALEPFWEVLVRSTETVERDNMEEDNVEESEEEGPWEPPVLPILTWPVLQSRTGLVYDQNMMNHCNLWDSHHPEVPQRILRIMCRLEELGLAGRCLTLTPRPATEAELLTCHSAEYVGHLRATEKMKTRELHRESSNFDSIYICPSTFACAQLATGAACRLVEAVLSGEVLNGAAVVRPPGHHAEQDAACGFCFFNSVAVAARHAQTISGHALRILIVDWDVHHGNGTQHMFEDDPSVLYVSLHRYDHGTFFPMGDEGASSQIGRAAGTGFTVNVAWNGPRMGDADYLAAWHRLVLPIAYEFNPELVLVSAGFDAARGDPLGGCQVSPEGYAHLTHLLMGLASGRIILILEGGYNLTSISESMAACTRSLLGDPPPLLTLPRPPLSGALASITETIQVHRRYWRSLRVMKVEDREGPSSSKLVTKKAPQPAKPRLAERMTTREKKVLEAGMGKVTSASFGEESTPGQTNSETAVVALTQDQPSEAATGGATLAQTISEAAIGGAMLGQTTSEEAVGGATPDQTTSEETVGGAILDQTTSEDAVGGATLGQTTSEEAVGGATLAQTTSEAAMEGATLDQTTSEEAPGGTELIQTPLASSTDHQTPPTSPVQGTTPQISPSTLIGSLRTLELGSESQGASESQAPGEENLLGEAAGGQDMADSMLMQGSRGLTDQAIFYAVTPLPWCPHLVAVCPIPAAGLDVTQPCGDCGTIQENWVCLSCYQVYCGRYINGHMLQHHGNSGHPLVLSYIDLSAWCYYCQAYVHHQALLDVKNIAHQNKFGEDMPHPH
The data set is described as follows: biochemical.
Description: Inhibition of N-terminal GST-tagged full length human recombinant HDAC6 expressed in baculovirus infected Sf9 cells using ZMAL (Z-Lys(Ac)-AMC) fluorogenic substrate incubated for 90 mins by fluorescence based assay

Data set [3] has as its system Plasmodium falciparum. The data set is described as follows: Resistance index, ratio of IC50 for antiplasmodial activity against multidrug-resistant asexual intraerythrocytic stage of Plasmodium falciparum Dd2 to IC50 for antiplasmodial activity against drug-sensitive asexual intraerythrocytic stage of Plasmodium falciparum 3D7 infected in human O+ erythrocytes by [3H]-hypoxanthine incorporation assay. In kind it is functional.

For data set [4], the system named is Plasmodium falciparum. Put plainly: microbe, parasite or virus in culture. In kind it is functional, organism-based. Conditions: 3D7, Erythrocyte.
A short description of data set [5]: Half life in human liver microsomes measured upto 40 mins by LC-MS/MS analysis. The data set is classed as ADME, Microsome.
Data set [6] can be described thus: Intrinsic clearance in human liver microsomes measured upto 40 mins by LC-MS/MS analysis. The data set is classed as ADME, Microsome. Conditions: read-out: CLH.
For another data set, the system named is HepG2. Put plainly: Cytotoxicity against human HepG2-A16-CD81EGFP cells assessed as inhibition of cell growth incubated for 24 hrs followed by medium transfer and incubation in multimode plate for 48 hrs by CellTiterGlo reagent based luminescence assay.
For data set [7], the system named is Plasmodium berghei. Put plainly: Antimalarial activity against Plasmodium berghei QIMR infected in BALB/c mouse assessed as reduction in peripheral blood parasitemia at 25 mg/kg, po bid for 4 days starting from 2 hrs post infection and measured on 4 to 6 days post-infection by Giemsa staining based microscopic analysis relative to control. Conditions: time 4-6 day. In kind it is functional.

A short description of data set [8]: Half life in mouse liver microsomes measured upto 40 mins by LC-MS/MS analysis. Conditions: liver microsomes.
Data set [9] in a line: Intrinsic clearance in mouse liver microsomes measured upto 40 mins by LC-MS/MS analysis.
The target of the next data set is Histone deacetylase 1 (Homo sapiens, UniProt Q13547).
Data set [10] relates to Plasmodium falciparum 3D7. The data set is described as follows: Inhibition of HDAC in trophozite-stage of Plasmodium falciparum 3D7 infected in erythrocytes assessed as hyperacetylation of histone H4 at lysine residue at 5 x IC50 incubated for 3 hrs by western blot analysis relative to control. In kind it is cell-based.
The test system of data set [11] is Plasmodium berghei. Put plainly: microbe, parasite or virus in culture. The data set is classed as functional, organism-based.
Data set [12] is described as follows: Selective index, ratio of IC50 for human HepG2-A16-CD81EGFP cells to IC50 for antiplasmodial activity against liver stage exo-erythrocytic forms of Plasmodium berghei sporozoites infected in human HepG2-A16-CD81EGFP cells.
Data set [13] concerns Plasmodium falciparum. The data set is described as follows: Antiplasmodial activity against multidrug-resistant asexual intraerythrocytic stage of Plasmodium falciparum Dd2 assessed as inhibition of parasite growth incubated for 48 hrs followed by addition of [3H]hypoxanthine for 24 hrs by [3H]hypoxanthine incorporation assay. In kind it is functional, organism-based.
Data set [14] relates to Plasmodium berghei. The data set is described as follows: Antimalarial activity against Plasmodium berghei QIMR infected in BALB/c mouse assessed as reduction in peripheral blood parasitemia at 10 mg/kg, po qd for 4 days starting from 2 hrs post-infection and measured on 4 to 6 days post-infection by Giemsa staining based microscopic analysis relative to control. Conditions: read-out: INH.

In data set [15] the test system is Plasmodium falciparum 3D7. Put plainly: Inhibition of HDAC in trophozite-stage of Plasmodium falciparum 3D7 infected in erythrocytes assessed as hyperacetylation of histone H4 at lysine residue at 5 x IC50 incubated for 3 hrs by western blot analysis. The data set is classed as cell-based.
A short description of data set [16]: Selectivity index, ratio of IC50 for cytotoxicity against human HepG2-A16-CD81EGFP cells to IC50 for antiplasmodial activity against multidrug-resistant asexual intraerythrocytic stage of Plasmodium falciparum Dd2. The data set is classed as toxicity, cell-based. Conditions: read-out: Ratio IC50.

Chain of Histone deacetylase 1 (Q13547 whole entry): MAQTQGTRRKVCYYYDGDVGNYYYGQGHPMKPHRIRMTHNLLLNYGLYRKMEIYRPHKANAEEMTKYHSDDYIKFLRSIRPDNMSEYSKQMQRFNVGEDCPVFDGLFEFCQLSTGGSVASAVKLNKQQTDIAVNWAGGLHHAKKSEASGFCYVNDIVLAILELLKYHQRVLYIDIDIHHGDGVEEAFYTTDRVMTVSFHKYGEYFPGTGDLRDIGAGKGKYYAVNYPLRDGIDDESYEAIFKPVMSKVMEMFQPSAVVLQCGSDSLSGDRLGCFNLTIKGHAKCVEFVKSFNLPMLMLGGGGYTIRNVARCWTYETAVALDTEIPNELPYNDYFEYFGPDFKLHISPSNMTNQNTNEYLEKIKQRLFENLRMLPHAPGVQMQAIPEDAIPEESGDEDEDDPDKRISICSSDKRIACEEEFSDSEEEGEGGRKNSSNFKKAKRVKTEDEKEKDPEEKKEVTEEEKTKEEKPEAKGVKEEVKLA
Description for Histone deacetylase 1: Inhibition of C-terminal FLAG/His-tagged human recombinant HDAC1 (1 to 482 residues) expressed in baculovirus infected Sf9 cells using ZMAL (Z-Lys(Ac)-AMC) as fluorogenic substrate incubated for 90 mins by fluorescence based assay

For the molecule `Cc1ccc(C(=O)N(CC(=O)NCc2ccccc2)Cc2ccc(C(=O)NO)cc2)c(C)c1`, the selectivity ratio in data set [1] is 155; in [12], 23. Also, the IC50 turned out to be 0.06 µM in data set [2]; 0.024 µM in the data set on Plasmodium falciparum [4]; 3.71 µM in the data set with HepG2; 0.06 µM on Histone deacetylase 1; 0.16 µM with Plasmodium berghei [11]; 0.003 µM in the data set on Plasmodium falciparum [13]. Moreover, in the data set on Plasmodium falciparum [3], the “Ratio IC50” value stood at 0.1. This molecule displayed a half-life in data set [5] of 0.328 h. Further, in [6], the microsomal CLint was determined as 86 µL/min/mg. Also, the inhibition in vivo at 25 mg/kg with Plasmodium berghei [7] came to 17.6%. Moreover, the half-life at 40 min in data set [8] came out at 0.747 h. The molecule further displayed a microsomal CLint at 40 min in data set [9] of 38 µL/min/mg. For the same molecule, in data set [10], the fold change (FC) came out at 2.

As for `CCN(CC)CCCC(C)Nc1ccnc2cc(Cl)ccc12` (configuration not stated) [CHLOROQUINE], the inhibition in vivo at 10 mg/kg/day in the data set on Plasmodium berghei [14] amounted to 100%.

As to `Cc1ccccc1C(=O)N(CC(=O)NCc1ccccc1)Cc1ccc(C(=O)NO)cc1`, the values for the selectivity ratio in [1] and in [12] were 137 and 32, respectively. The half-maximal inhibitory concentration (IC50) came to 0.03 µM in data set [2]; 0.07 µM in the data set on Plasmodium falciparum [4]; 9.62 µM with HepG2; 0.28 µM against Histone deacetylase 1; 0.3 µM in the data set on Plasmodium berghei [11]; 0.021 µM in the data set on Plasmodium falciparum [13]. For the same molecule, the “Ratio IC50” value in the data set on Plasmodium falciparum [3] was found to be 0.3. Moreover, in [10], the fold change (FC) is 2.

On to `CNC(=O)CN(Cc1ccc(C(=O)NO)cc1)C(=O)c1ccc(C(C)C)cc1`, for which the selectivity ratio in data set [1] was 573; in data set [12], 19; in [16], 4580. Moreover, the half-maximal inhibitory concentration (IC50) was 0.06 µM in [2]; 0.016 µM with Plasmodium falciparum [4]; 9.16 µM in the data set on HepG2; 0.1 µM at Histone deacetylase 1; 0.48 µM in the data set on Plasmodium berghei [11]; 0.002 µM in the data set with Plasmodium falciparum [13]. Further, in the data set on Plasmodium falciparum [3], the “Ratio IC50” value is given as 0.1. Moreover, the half-life in [5] came to 5.78 h. In addition, the microsomal CLint in data set [6] came out at 5 µL/min/mg. Moreover, the inhibition in vivo at 25 mg/kg in the data set on Plasmodium berghei [7] was found to be 33.3%. The inhibition result in [15] is “Active”. In data set [8], this molecule had a half-life at 40 min of 4.52 h. Besides, the microsomal CLint at 40 min in data set [9] came out at 6 µL/min/mg.
